Results: patent US20250242064A1, “CXCR4-TARGETING COMPOUNDS, AND METHODS OF MAKING AND USING THE SAME” (PROVINCIAL HEALTH SERVICES AUTHORITY, priority 2022, published 2025)
Where a SMILES comes first, the peptide text is derived from it. Bridges are numbered along the chain shown (N, C = ends). [ ]: non-standard residue; d: D form. The star is where a group is joined. X4 = O=C(O)CN1CCN(CC(=O)O)CCN(CC(=O)N[C@@H](CS(=O)(=O)O)C(=O)NCCCC[C@H](NC(=O)CNC(=O)CCCc2ccc(Cl)cc2)C(=O)*)CCN(CC(=O)O)CC1; 2Nal = N[C@@H](Cc1ccc2ccccc2c1)C(=O)O; Lys(iPr) = CC(C)NCCCC[C@H](N)C(=O)O

Experiment: in vivo
Design: species or system mice
Details: male, NOD.Cg-Rag1tm1Mom Il2rgtm1Wjl/SzJ (NRG), mouse, iv, total radioactivity
Experimental: The Z138 Mantle cell lymphoma cell line was purchased from the American Type Culture Collection (ATCC©CRL-3001). The cell line was cultured in a 5% CO2 atmosphere at 37° C. in a humidified incubator with IMDM medium supplemented with 10% fetal bovine serum, 100 I.U./mL penicillin, and 100 μg/mL streptomycin.
[^68Ga]GaCl3 was eluted from an iThemba Labs generator with a total of 4 mL of 0.1 M HCl. The eluted [^68Ga]GaCl3 solution was added to 2 mL of concentrated HCl. This radioactive mixture was then added to a DGA resin column and washed with 3 mL of 5 M HCl. The column was then dried with air and the [^68Ga]GaCl3 (0.10-0.50 GBq) was eluted with 0.5 mL of water into a vial containing a solution of the unlabeled precursor (25 μg) in 0.7 mL HEPES buffer (2 M, pH 5.3). The reaction mixture was heated in a microwave oven (Danby; DMW7700WDB) for 1 min at power setting 2. The mixture was purified by semi-prep HPLC and quality control was performed via analytical HPLC with the co-injection of the unlabeled standard with a one-twelfth of the radiotracer. Radiochemical yields (decay-corrected) were >50% and radiochemical purities were >95%.
Animal experiments were performed in accordance with guidelines established by the Canadian Council on Animal Care, under a research protocol approved by the Animal Ethics Committee of the University of British Columbia. For all studies, male NOD.Cg-Rag1tm1Momll2rgtm1Wjl/SzJ (NRG) mice were used and cells injected in a 100 μL solution of 1:1 ratio of PBS/Matrigel. For preclinical imaging and biodistribution studies, 5×10^6 cells of Z138, cells were subcutaneously inoculated on the left or right flank and tumors were grown to a size of 200-300 mm^3. […]
Under isoflurane anesthesia (2-2.5% isoflurane in 2 L/min 02), mice were injected intravenously with [^68Ga]Ga-BL34L6 or [^68Ga]Ga-BL34L7. Mice were euthanized by CO2 inhalation after anesthesia with isoflurane. Tissues were harvested, washed in PBS, patted dry, weighed, and then assayed radioactivity on a gamma counter. Counted radioactivities were converted to percentage injected dose per gram of tissue (% ID/g) using a calibration curve.

[1] = Biodistribution: Small Intestine

tissue uptake at 1 h (Biodistribution: Adrenals): 2.62 %ID/g
tissue uptake at 3 h (Biodistribution: Adrenals): 1.93 %ID/g
tissue uptake at 1 h (Biodistribution: Blood): 13.3 %ID/g
tissue uptake at 3 h (Biodistribution: Blood): 7.55 %ID/g
tissue uptake at 1 h (Biodistribution: Bone): 1.04 %ID/g
tissue uptake at 3 h (Biodistribution: Bone): 1.28 %ID/g
tissue uptake at 1 h (Biodistribution: Brain): 0.19 %ID/g
tissue uptake at 3 h (Biodistribution: Brain): 0.16 %ID/g
tissue uptake at 1 h (Biodistribution: Heart): 3.11 %ID/g
tissue uptake at 3 h (Biodistribution: Heart): 1.91 %ID/g
tissue uptake at 1 h (Biodistribution: Kidneys): 5.01 %ID/g
tissue uptake at 3 h (Biodistribution: Kidneys): 4.15 %ID/g
tissue uptake at 1 h (Biodistribution: Liver): 2.9 %ID/g
tissue uptake at 3 h (Biodistribution: Liver): 3.02 %ID/g
tissue uptake at 1 h (Biodistribution: Lungs): 9.23 %ID/g
tissue uptake at 3 h (Biodistribution: Lungs): 5.9 %ID/g
tissue uptake at 1 h (Biodistribution: Muscle): 0.99 %ID/g
tissue uptake at 3 h (Biodistribution: Muscle): 0.73 %ID/g
tissue uptake at 1 h (Biodistribution: Pancreas): 1.24 %ID/g
tissue uptake at 3 h (Biodistribution: Pancreas): 0.92 %ID/g
tissue uptake at 1 h [1]: 1.31 %ID/g
tissue uptake at 3 h [1]: 0.89 %ID/g
tissue uptake at 1 h (Biodistribution: Spleen): 2.3 %ID/g
tissue uptake at 3 h (Biodistribution: Spleen): 2.08 %ID/g
tissue uptake at 1 h (Biodistribution: Stomach): 0.49 %ID/g
tissue uptake at 3 h (Biodistribution: Stomach): 0.44 %ID/g
tissue uptake at 1 h (Biodistribution: Testes): 1.95 %ID/g
tissue uptake at 3 h (Biodistribution: Testes): 1.71 %ID/g
tissue uptake at 1 h (Biodistribution: Z138 Tumor): 12.2 %ID/g
tissue uptake at 3 h (Biodistribution: Z138 Tumor): 23.7 %ID/g
tissue to tissue ratio at 1 h (Ratio Tumor-to-Blood): 0.93
tissue to tissue ratio at 3 h (Ratio Tumor-to-Blood): 3.17
tissue to tissue ratio at 1 h (Ratio Tumor-to-Bone): 12.7
tissue to tissue ratio at 3 h (Ratio Tumor-to-Bone): 21.9
tissue to tissue ratio at 1 h (Ratio Tumor-to-Kidney): 2.52
tissue to tissue ratio at 3 h (Ratio Tumor-to-Kidney): 5.78
tissue to tissue ratio at 1 h (Ratio Tumor-to-Muscle): 12.8
tissue to tissue ratio at 3 h (Ratio Tumor-to-Muscle): 32.6
tissue to tissue ratio at 1 h (Ratio Tumor-to-Pancreas): 10.1
tissue to tissue ratio at 3 h (Ratio Tumor-to-Pancreas): 26
Structure (SMILES): CC(C)NCCCC[C@H](NC(=O)[C@H]1CCC(=O)N[C@@H](CCCCNC(=O)[C@H](CCCCNC(=O)[C@H](CS(=O)(=O)O)NC(=O)CN2CCN(CC(=O)O)CCN(CC(=O)O)CCN(CC(=O)O)CC2)NC(=O)CNC(=O)CCCc2ccc(Cl)cc2)C(=O)N[C@@H](Cc2ccc(O)cc2)C(=O)N[C@@H](CCCCNC(C)C)C(=O)N[C@H](CCCNC(=N)N)C(=O)N[C@@H](Cc2ccc3ccccc3c2)C(=O)N[C@H](C)C(=O)N1)C(N)=O [[68Ga]Ga-BL34T1, metal not drawn] (K(X4)Y[Lys(iPr)][dR][2Nal][dA][dE][Lys(iPr)]-NH2; lactam N-7)
